Assay results as given in patent publication US9873680B2 (Gilead Sciences, Inc., priority 2014, dated 2018).
Read-outs that look alike come from different tables or passages of the source.

Columns and labels:
HIV-IIIb = assay: Test A: Antiviral Assay in MT4 Cells; type: cell-based, HIV-1; conditions: for inhibition at 2 µM: 2 μM drug concentration, read-out: Response at 2 μM (percent inhibition of virus-induced cell killing)
Outline: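 Readout was CellTiter-Glo luminescence after 10 min room-temperature lysis, taken 5 days after plating at 37 °C. The 2000 MT-4 cells per well, mixed 1 h beforehand with HIV-IIIb (m.o.i. 0.003), went straight onto the diluted compound.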

[1] = Test B: Cytotoxicity Assay; type: cell-based; conditions: human, uninfected MT-4 cells, CellTiter-Glo
Experimental: Test B: Cytotoxicity Assay Compound cytotoxicity and the corresponding CC50 values was determined using the same protocol as described in the antiviral assay (Test A) except that uninfected cells were used.

[2] = Human immunodeficiency virus 1, MT4, 120 h, 0.2 μM drug concentration, MT-4 cells infected with HIV-IIIb, 5 days, values normalized to 100%, average over time, read-out: % inhibition at 0.2 μM (percent inhibition of virus-induced cell killing)
[3] = Human immunodeficiency virus 1, IIIB, MT4, 0.2 μM drug concentration, comparison with previously published compounds, read-out: Response at 0.2 μM (percent inhibition of virus-induced cell killing)
[4] = Human immunodeficiency virus 1, IIIB, MT4, comparison with previously published compounds
[5] = Human immunodeficiency virus 1, IIIB, MT4, 120 h, read-out: % inhibition at 0.2 μM (percent inhibition of virus-induced cell killing)

SMILES	inhibition at 0.2 µM (HIV-IIIb; [2])	CC50 at 5 days [1]	inhibition at 0.2 µM (HIV-IIIb; [3])	inhibition at 2 µM (HIV-IIIb; [4])	inhibition at 0.2 µM (HIV-IIIb; [5])
Cn1nc(NS(C)(=O)=O)c2c(Cl)ccc(-c3ccc(C#CC4(O)CC(F)(F)C4)nc3[C@H](Cc3cccc(F)c3)NC(=O)Cn3nc(C(F)(F)F)c4c3C(F)(F)[C@@H]3C[C@H]43)c21 [Compound 102, N—((S)-1-(3-(4-chloro-1-methyl-3-(methylsulfonamido)-1H-indazol-7-yl)-6-((3,3-difluoro-1-hydroxycyclobutyl)ethynyl)pyridin-2-yl)-2-(3-fluorophenyl)ethyl)-2-((3bS,4aR)-5,5-difluoro-3-(trifluoromethyl)-3b,4,4a,5-tetrahydro-1H-cyclopropa[3,4]cyclopenta[1,2-c]pyrazol-1-yl)acetamide]	88%	7.17 µM	–	–	–
Cn1nc(NS(C)(=O)=O)c2c(Cl)ccc(-c3ccc(C#CC4(O)CC(F)(F)C4)nc3[C@H](Cc3cccc(F)c3)NC(=O)Cn3nc(C(F)F)c4c3C(F)(F)[C@@H]3C[C@H]43)c21 [Compound 101H, N—((S)-1-(3-(4-chloro-1-methyl-3-(methylsulfonamido)-1H-indazol-7-yl)-6-((3,3-difluoro-1-hydroxycyclobutyl)ethynyl)pyridin-2-yl)-2-(3-fluorophenyl)ethyl)-2-((3bS,4aR)-3-(difluoromethyl)-5,5-difluoro-3b,4,4a,5-tetrahydro-1H-cyclopropa[3,4]cyclopenta[1,2-c]pyrazol-1-yl)acetamide]	91%	9.1 µM	–	–	–
Cn1nc(NS(C)(=O)=O)c2c(Cl)ccc(-c3ccc(C#CC4(C)CNCCO4)nc3[C@H](Cc3cc(F)cc(F)c3)NC(=O)Cn3nc(C(F)(F)F)c4c3C(F)(F)[C@@H]3C[C@H]43)c21 (stereo partly drawn) [Compound 76, N-((1S)-1-(3-(4-chloro-1-methyl-3-(methylsulfonamido)-1H-indazol-7-yl)-6-((2-methylmorpholin-2-yl)ethynyl)pyridin-2-yl)-2-(3,5-difluorophenyl)ethyl)-2-((3bS,4aR)-5,5-difluoro-3-(trifluoromethyl)-3b,4,4a,5-tetrahydro-1H-cyclopropa[3,4]cyclopenta[1,2-c]pyrazol-1-yl)acetamide]	93%	6.67 µM	–	–	–
Cn1cnc(C#Cc2ccc(-c3ccc(Cl)c4c(NS(C)(=O)=O)nn(C)c34)c([C@H](Cc3cc(F)cc(F)c3)NC(=O)Cn3nc(C(F)F)c4c3C(F)(F)[C@@H]3C[C@H]43)n2)c1 [Compound 78, N—((S)-1-(3-(4-chloro-1-methyl-3-(methylsulfonamido)-1H-indazol-7-yl)-6-((1-methyl-1H-imidazol-4-yl)ethynyl)pyridin-2-yl)-2-(3,5-difluorophenyl)ethyl)-2-((3bS,4aR)-3-(difluoromethyl)-5,5-difluoro-3b,4,4a,5-tetrahydro-1H-cyclopropa[3,4]cyclopenta[1,2-c]pyrazol-1-yl)acetamide]	87%	> 36.6 µM	–	–	–
O=C(Cn1nc(C(F)F)c2c1C(F)(F)CCC2(F)F)N[C@@H](Cc1cc(F)cc(F)c1)c1ncc(C#CC2CC2)cc1-c1ccc2c(c1)C(=O)NC2 [Compound 2G, (S)—N-(1-(5-(cyclopropylethynyl)-3-(3-oxoisoindolin-5-yl)pyridin-2-yl)-2-(3,5-difluorophenyl)ethyl)-2-(3-(difluoromethyl)-4,4,7,7-tetrafluoro-4,5,6,7-tetrahydro-1H-indazol-1-yl)acetamide]	0%	38.4 µM	0%	6%	–
Cn1nc(NS(C)(=O)=O)c2c(Cl)ccc(-c3cc(N)c(C#CC4(O)CC(F)(F)C4)nc3[C@H](Cc3cc(F)cc(F)c3)NC(=O)Cn3nc(C(F)(F)F)c4c3C(F)(F)[C@@H]3C[C@H]43)c21 [Compound 100, N—((S)-1-(5-amino-3-(4-chloro-1-methyl-3-(methylsulfonamido)-1H-indazol-7-yl)-6-((3,3-difluoro-1-hydroxycyclobutyl)ethynyl)pyridin-2-yl)-2-(3,5-difluorophenyl)ethyl)-2-((3bS,4aR)-5,5-difluoro-3-(trifluoromethyl)-3b,4,4a,5-tetrahydro-1H-cyclopropa[3,4]cyclopenta[1,2-c]pyrazol-1-yl)acetamide]	–	8.2 µM	–	–	87%
Cn1nc(NS(C)(=O)=O)c2c(Cl)ccc(-c3ccc(C#CC4(CO)CCCC4)nc3[C@H](Cc3cc(F)cc(F)c3)NC(=O)Cn3nc(C(F)(F)F)c4c3C(F)(F)[C@@H]3C[C@H]43)c21 [Compound 45B, N—((S)-1-(3-(4-chloro-1-methyl-3-(methylsulfonamido)-1H-indazol-7-yl)-6-((1-(hydroxymethyl)cyclopentyl)ethynyl)pyridin-2-yl)-2-(3,5-difluorophenyl)ethyl)-2-((3bS,4aR)-5,5-difluoro-3-(trifluoromethyl)-3b,4,4a,5-tetrahydro-1H-cyclopropa[3,4]cyclopenta[1,2-c]pyrazol-1-yl)acetamide]	93%	7.35 µM	–	–	–
Cc1cncc(C#Cc2ncc(-c3ccc(F)c(C(N)=O)c3)c([C@H](Cc3cc(F)cc(F)c3)NC(=O)Cn3nc(C(F)(F)F)c4c3C(F)(F)[C@@H]3C[C@H]43)n2)c1 [Compound 19, 5-(4-((S)-1-(2-((3bS,4aR)-5,5-difluoro-3-(trifluoromethyl)-3b,4,4a,5-tetrahydro-1H-cyclopropa[3,4]cyclopenta[1,2-c]pyrazol-1-yl)acetamido)-2-(3,5-difluorophenyl)ethyl)-2-((5-methylpyridin-3-yl)ethynyl)pyrimidin-5-yl)-2-fluorobenzamide]	83%	4.63 µM	83%	88%	–
Cn1nc(O)c2c(Cl)ccc(-c3ccc(C#CC4(O)CCOCC4)nc3[C@H](Cc3cc(F)cc(F)c3)NC(=O)Cn3nc(C(F)(F)F)c4c3CCCC4)c21 [Compound 57, (S)—N-(1-(3-(4-chloro-3-hydroxy-1-methyl-1H-indazol-7-yl)-6-((4-hydroxytetrahydro-2H-pyran-4-yl)ethynyl)pyridin-2-yl)-2-(3,5-difluorophenyl)ethyl)-2-(3-(trifluoromethyl)-4,5,6,7-tetrahydro-1H-indazol-1-yl)acetamide]	–	21 µM	–	–	100%
Cn1nc(NS(C)(=O)=O)c2c(Cl)ccc(-c3ccc(C#C[C@]4(C)CNCCO4)nc3[C@H](Cc3cc(F)cc(F)c3)NC(=O)Cn3nc(C#N)c4c3C(F)(F)[C@@H]3C[C@H]43)c21 [Compound 88L, N—((S)-1-(3-(4-chloro-1-methyl-3-(methylsulfonamido)-1H-indazol-7-yl)-6-(((R)-2-methylmorpholin-2-yl)ethynyl)pyridin-2-yl)-2-(3,5-difluorophenyl)ethyl)-2-((3bS,4aR)-3-cyano-5,5-difluoro-3b,4,4a,5-tetrahydro-1H-cyclopropa[3,4]cyclopenta[1,2-c]pyrazol-1-yl)acetamide]	97%	5.79 µM	–	–	–
Cn1nc(NS(C)(=O)=O)c2cccc(-c3ccc(C#CCN4CCOCC4)nc3[C@H](Cc3cc(F)cc(F)c3)NC(=O)Cn3nc(C(F)(F)F)c4c3C(F)(F)[C@@H]3C[C@H]43)c21 [Compound 34, 2-((3bS,4aR)-5,5-difluoro-3-(trifluoromethyl)-3b,4,4a,5-tetrahydro-1H-cyclopropa[3,4]cyclopenta[1,2-c]pyrazol-1-yl)-N—((S)-2-(3,5-difluorophenyl)-1-(3-(1-methyl-3-(methylsulfonamido)-1H-indazol-7-yl)-6-(3-morpholinoprop-1-yn-1-yl)pyridin-2-yl)ethyl)acetamide]	87%	10.2 µM	–	–	–
CC(C)(C)OC(=O)N1CCCC1c1ncc(C#Cc2ccc(-c3ccc4c(c3)C(=O)NC4)c([C@H](Cc3cc(F)cc(F)c3)NC(=O)Cn3nc(C(F)(F)F)c4c3C(F)(F)[C@@H]3C[C@H]43)n2)[nH]1 (stereo partly drawn) [Compound 13C, tert-butyl 2-(5-((6-((S)-1-(2-((3bS,4aR)-5,5-difluoro-3-(trifluoromethyl)-3b,4,4a,5-tetrahydro-1H-cyclopropa[3,4]cyclopenta[1,2-c]pyrazol-1-yl)acetamido)-2-(3,5-difluorophenyl)ethyl)-5-(3-oxoisoindolin-5-yl)pyridin-2-yl)ethynyl)-1H-imidazol-2-yl)pyrrolidine-1-carboxylate]	87%	> 53.2 µM	–	–	–
Cn1nc(NS(C)(=O)=O)c2c(Cl)ccc(-c3ccc(C#CC4(O)COC4)nc3[C@H](Cc3cc(F)cc(F)c3)NC(=O)Cn3nc(C(F)(F)F)c4c3C(F)(F)[C@@H]3C[C@H]43)c21 [Compound 38, N—((S)-1-(3-(4-chloro-1-methyl-3-(methylsulfonamido)-1H-indazol-7-yl)-6-((3-hydroxyoxetan-3-yl)ethynyl)pyridin-2-yl)-2-(3,5-difluorophenyl)ethyl)-2-((3bS,4aR)-5,5-difluoro-3-(trifluoromethyl)-3b,4,4a,5-tetrahydro-1H-cyclopropa[3,4]cyclopenta[1,2-c]pyrazol-1-yl)acetamide]	97%	14.3 µM	–	–	–
CC(C)N1CCO[C@](C)(C#Cc2ccc(-c3ccc(Cl)c4c(NS(C)(=O)=O)nn(C)c34)c([C@H](Cc3cc(F)cc(F)c3)NC(=O)Cn3nc(C(F)F)c4c3C(F)(F)[C@@H]3C[C@H]43)n2)C1 [Compound 87, N—((S)-1-(3-(4-chloro-1-methyl-3-(methylsulfonamido)-1H-indazol-7-yl)-6-(((R)-4-isopropyl-2-methylmorpholin-2-yl)ethynyl)pyridin-2-yl)-2-(3,5-difluorophenyl)ethyl)-2-((3bS,4aR)-3-(difluoromethyl)-5,5-difluoro-3b,4,4a,5-tetrahydro-1H-cyclopropa[3,4]cyclopenta[1,2-c]pyrazol-1-yl)acetamide]	100%	19.5 µM	–	–	–
